From patent US20260001914A1, “MACROCYCLIC PEPTIDES TARGETING KRAS” (Merck Sharp & Dohme LLC, priority 2022, published 2026)
pEC50: −log10 of the molar value. *1 amine or outer side, *2 acyl side, *3 side chain or, on linkers, in order; H or OH if unused. Where a SMILES comes first, the peptide text is derived from it. Bridges are numbered along the chain shown (N, C = ends). [ ]: non-standard residue; d: D form. The star is where a group is joined. X82 = CS(=O)(=O)c1ncc(C[C@H](N[*:1])C(=O)[*:2])cn1; X19 = C[C@H](c1ccccc1)[C@@H](C(=O)[*:2])N(C)[*:1]; Phe(3,4-Cl2) = N[C@@H](Cc1ccc(Cl)c(Cl)c1)C(=O)O; Ala(pyrimidin-5-yl) = N[C@@H](Cc1cncnc1)C(=O)O; X71 = COc1c(F)cc(C[C@H](N[*:1])C(=O)[*:2])cc1F; X6 = O=C([C@H](Cc1cnn(C2COC2)c1)N[*:1])[*:2]; X8 = CN([C@@H](Cc1ccc(F)nc1)C(=O)[*:2])[*:1]; X81 = Cc1ccc(C[C@H](N[*:1])C(=O)[*:2])c(F)n1; Ala(2-pyrazinyl) = N[C@@H](Cc1cnccn1)C(=O)O; Ala(thiazol-2-yl) = N[C@@H](Cc1nccs1)C(=O)O; NMePhe(3-Me) = CN[C@@H](Cc1cccc(C)c1)C(=O)O; X39 = CN([C@@H](Cc1cccnc1F)C(=O)[*:2])[*:1]; X43 = CN([C@@H](Cc1cnccc1F)C(=O)[*:2])[*:1]; X45 = CN([C@@H](Cc1ccncc1F)C(=O)[*:2])[*:1]; X67 = O=C([C@H](Cc1ncc(Cl)cn1)N[*:1])[*:2]; X3 = CN([C@@H](Cc1cncnc1)C(=O)[*:2])[*:1]; X57 = Cn1ccc(C[C@H](N[*:1])C(=O)[*:2])n1; Ethyl(2-pyrrolidin-1-yl) = C1CCN(CC*)C1; X11 = CC(C)(F)CC[C@H](N[*:1])C(=O)[*:2]; 1Nal = N[C@@H](Cc1cccc2ccccc12)C(=O)O; Ala(cPent) = N[C@@H](CC1CCCC1)C(=O)O; Phe(2-F) = N[C@@H](Cc1ccccc1F)C(=O)O; X31 = O=C([C@H](CCC1CC1)N[*:1])[*:2]; NMe3Pal = CN[C@@H](Cc1cccnc1)C(=O)O; X1 = O=C(C12CC(CN[*:1])(C1)C2)[*:2]; Ala(cPr) = N[C@@H](CC1CC1)C(=O)O; NMeF = CN[C@@H](Cc1ccccc1)C(=O)O; PhLac = O=C(O)[C@@H](O)Cc1ccccc1; 4Pal = N[C@@H](Cc1ccncc1)C(=O)O; 3Thi = N[C@@H](Cc1ccsc1)C(=O)O; hLeu = CC(C)CC[C@H](N)C(=O)O; αMeC = C[C@](N)(CS)C(=O)O; NMeA = CN[C@@H](C)C(=O)O; Nle = CCCC[C@H](N)C(=O)O; CHF2 = FC(F)*

The compounds below were run against KRAS-G12D protein (Homo sapiens, UniProt P01116, G12D) (assay: SOS-mediated nucleotide exchange assay (BODIPY-GDP / Tb-streptavidin TR-FRET)).
Format: biochemical

Chain of KRAS-G12D protein (P01116 1-188 isoform P01116-2 G12D): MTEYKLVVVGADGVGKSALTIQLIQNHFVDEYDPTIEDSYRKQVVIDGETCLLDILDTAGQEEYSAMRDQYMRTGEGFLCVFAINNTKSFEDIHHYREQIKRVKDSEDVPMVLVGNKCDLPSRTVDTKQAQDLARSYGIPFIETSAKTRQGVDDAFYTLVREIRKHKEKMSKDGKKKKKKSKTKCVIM

Row | Compound | pEC50
1 | CCCC[C@@H]1NC(=O)[C@H](Cc2ccc(Cl)c(Cl)c2)NC(=O)[C@H](C)N(C)C(=O)[C@H](Cc2ccccc2)OC(=O)C23CC(CNC(=O)[C@H](Cc4ccccc4)N(C)C(=O)[C@H](CCCC)NC(=O)[C@H](Cc4ccccc4F)NC1=O)(C2)C3 [compound 309, cyclo(FLac-NMeA-Phe34Cl2-Nle-Phe2F-Nle-NMeF-amBCP)] (cyclo([NMeA][Phe(3,4-Cl2)][Nle][Phe(2-F)][Nle][NMeF][X1][PhLac])) | 6.97
2 | CCCC[C@@H]1NC(=O)[C@H](Cc2cc(F)c(OC)c(F)c2)NC(=O)[C@H](C)N(C)C(=O)[C@H](Cc2ccccc2)OC(=O)C23CC(CNC(=O)[C@H](Cc4ccccc4)N(C)C(=O)[C@H](CCCC)NC(=O)[C@H](Cc4ccccc4F)NC1=O)(C2)C3 [compound 310, cyclo(FLac-NMeA-TyrOMe35F2-Nle-Phe2F-Nle-NMeF-amBCP)] (cyclo([NMeA][X71][Nle][Phe(2-F)][Nle][NMeF][X1][PhLac])) | 6.85
3 | CCCC[C@@H]1NC(=O)[C@H](Cc2ccc(C)nc2F)NC(=O)[C@H](C)N(C)C(=O)[C@H](Cc2ccccc2)OC(=O)C23CC(CNC(=O)[C@H](Cc4ccccc4)N(C)C(=O)[C@H](CCCC)NC(=O)[C@H](Cc4ccccc4F)NC1=O)(C2)C3 [compound 311, cyclo(FLac-NMeA-3Pal2F4Me-Nle-Phe2F-Nle-NMeF-amBCP)] (cyclo([NMeA][X81][Nle][Phe(2-F)][Nle][NMeF][X1][PhLac])) | 6.05
4 | CCCC[C@@H]1NC(=O)[C@H](Cc2ccc(OC(F)F)cc2)NC(=O)[C@H](C)N(C)C(=O)[C@H](Cc2ccccc2)OC(=O)C23CC(CNC(=O)[C@H](Cc4ccccc4)N(C)C(=O)[C@H](CCCC)NC(=O)[C@H](Cc4ccccc4F)NC1=O)(C2)C3 [compound 312, cyclo(FLac-NMeA-TyrOCF2-Nle-Phe2F-Nle-NMeF-amBCP)] (cyclo([NMeA]Y(CHF2)[Nle][Phe(2-F)][Nle][NMeF][X1][PhLac])) | 6.02
5 | CCCC[C@@H]1NC(=O)[C@H](Cc2cnc(S(C)(=O)=O)nc2)NC(=O)[C@H](C)N(C)C(=O)[C@H](Cc2ccccc2)OC(=O)C23CC(CNC(=O)[C@H](Cc4ccccc4)N(C)C(=O)[C@H](CCCC)NC(=O)[C@H](Cc4ccccc4F)NC1=O)(C2)C3 [compound 313, cyclo(FLac-NMeA-AlaPyrim4SO2Me-Nle-Phe2F-Nle-NMeF-amBCP)] (cyclo([NMeA][X82][Nle][Phe(2-F)][Nle][NMeF][X1][PhLac])) | 8.28
6 | CCCC[C@@H]1NC(=O)[C@H](Cc2ccc(OCCN3CCCC3)cc2)NC(=O)[C@H](C)N(C)C(=O)[C@H](Cc2ccccc2)OC(=O)C23CC(CNC(=O)[C@H](Cc4ccccc4)N(C)C(=O)[C@H](CCCC)NC(=O)[C@H](Cc4ccccc4F)NC1=O)(C2)C3 [compound 316, cyclo(FLac-NMeA-TyrOEtPyr-Nle-Phe2F-Nle-NMeF-amBCP)] (cyclo([NMeA]Y(Ethyl(2-pyrrolidin-1-yl))[Nle][Phe(2-F)][Nle][NMeF][X1][PhLac])) | 8.13
7 | CCCC[C@@H]1NC(=O)[C@H](Cc2cnn(C3COC3)c2)NC(=O)[C@H](C)N(C)C(=O)[C@H](Cc2ccccc2)OC(=O)C23CC(CNC(=O)[C@H](Cc4ccccc4)N(C)C(=O)[C@H](CCCC)NC(=O)[C@H](Cc4ccccc4F)NC1=O)(C2)C3 [compound 317, cyclo(FLac-NMeA-AlaPyz1Ox-Nle-Phe2F-Nle-NMeF-amBCP)] (cyclo([NMeA][X6][Nle][Phe(2-F)][Nle][NMeF][X1][PhLac])) | 7.64
8 | CCCC[C@@H]1NC(=O)[C@H](Cc2ccsc2)NC(=O)[C@H](C)N(C)C(=O)[C@H](Cc2ccccc2)OC(=O)C23CC(CNC(=O)[C@H](Cc4ccccc4)N(C)C(=O)[C@H](CCCC)NC(=O)[C@H](Cc4ccccc4F)NC1=O)(C2)C3 [compound 318, cyclo(FLac-NMeA-3Thi-Nle-Phe2F-Nle-NMeF-amBCP)] (cyclo([3Thi][Nle][Phe(2-F)][Nle][NMeF][X1][PhLac][NMeA])) | 6.28
9 | CCCC[C@@H]1NC(=O)[C@H](Cc2ccn(C)n2)NC(=O)[C@H](C)N(C)C(=O)[C@H](Cc2ccccc2)OC(=O)C23CC(CNC(=O)[C@H](Cc4ccccc4)N(C)C(=O)[C@H](CCCC)NC(=O)[C@H](Cc4ccccc4F)NC1=O)(C2)C3 [compound 319, cyclo(FLac-NMeA-MePyzAla-Nle-Phe2F-Nle-NMeF-amBCP)] (cyclo([NMeA][X57][Nle][Phe(2-F)][Nle][NMeF][X1][PhLac])) | 5.29
10 | CCCC[C@@H]1NC(=O)[C@H](Cc2nccs2)NC(=O)[C@H](C)N(C)C(=O)[C@H](Cc2ccccc2)OC(=O)C23CC(CNC(=O)[C@H](Cc4ccccc4)N(C)C(=O)[C@H](CCCC)NC(=O)[C@H](Cc4ccccc4F)NC1=O)(C2)C3 [compound 320, cyclo(FLac-NMeA-2TzA-Nle-Phe2F-Nle-NMeF-amBCP)] (cyclo([NMeA][Ala(thiazol-2-yl)][Nle][Phe(2-F)][Nle][NMeF][X1][PhLac])) | 5.36
11 | CCCC[C@@H]1NC(=O)[C@H](Cc2ncc(Cl)cn2)NC(=O)[C@H](C)N(C)C(=O)[C@H](Cc2ccccc2)OC(=O)C23CC(CNC(=O)[C@H](Cc4ccccc4)N(C)C(=O)[C@H](CCCC)NC(=O)[C@H](Cc4ccccc4F)NC1=O)(C2)C3 [compound 321, cyclo(FLac-NMeA-Ala2Pyrim5Cl-Nle-Phe2F-Nle-NMeF-amBCP)] (cyclo([NMeA][X67][Nle][Phe(2-F)][Nle][NMeF][X1][PhLac])) | 6.21
12 | CCCC[C@@H]1NC(=O)[C@H](Cc2cnccn2)NC(=O)[C@H](C)N(C)C(=O)[C@H](Cc2ccccc2)OC(=O)C23CC(CNC(=O)[C@H](Cc4ccccc4)N(C)C(=O)[C@H](CCCC)NC(=O)[C@H](Cc4ccccc4F)NC1=O)(C2)C3 [compound 322, cyclo(FLac-NMeA-AlaPyrz-Nle-Phe2F-Nle-NMeF-amBCP)] (cyclo([NMeA][Ala(2-pyrazinyl)][Nle][Phe(2-F)][Nle][NMeF][X1][PhLac])) | 5.64
13 | CCCC[C@@H]1NC(=O)[C@H](Cc2ccncc2)NC(=O)[C@H](CCCNC(=N)N)NC(=O)[C@H](Cc2cccc3ccccc23)NC(=O)CSC[C@@](C)(C(N)=O)NC(=O)[C@H](Cc2cccnc2)N(C)C(=O)[C@H](CCCC)NC(=O)[C@H](Cc2ccc(O)cc2)NC1=O [compound 333, cyclo(INal-R-4Pal-Nle-Y-Nle-NMe3Pal-aMeCl-ClAc)] ({CH2CO}-[1Nal]R[4Pal][Nle]Y[Nle][NMe3Pal][αMeC]-NH2; thioether N-8) | 7.70
14 | Cc1cccc(C[C@H]2C(=O)NCC34CC(C3)(C4)C(=O)O[C@@H](Cc3ccccc3)C(=O)N(C)[C@@H](C)C(=O)N[C@@H](Cc3cncnc3)C(=O)N[C@@H](CC3CC3)C(=O)N[C@@H](Cc3ccccc3F)C(=O)N[C@@H](CCC3CC3)C(=O)N2C)c1 [compound 334, cyclo(FLac-NMeA-PyrimAla-cPrA-Phe2F-hcPrA-NMePhe3Me-amBCP)] (cyclo([Ala(cPr)][Phe(2-F)][X31][NMePhe(3-Me)][X1][PhLac][NMeA][Ala(pyrimidin-5-yl)])) | 8.70
15 | CC(C)CC[C@@H]1NC(=O)[C@H](Cc2ccccc2F)NC(=O)[C@H](CC2CCCC2)NC(=O)[C@H](Cc2cncnc2)NC(=O)[C@H](C)N(C)C(=O)[C@H](Cc2ccccc2)OC(=O)C23CC(CNC(=O)[C@H](Cc4cncnc4)N(C)C1=O)(C2)C3 [compound 335, cyclo(FLac-NMeA-PyrimAla-cPeA-Phe2F-hL-NMeAlaPyrim-amBCP)] (cyclo([Ala(cPent)][Phe(2-F)][hLeu][X3][X1][PhLac][NMeA][Ala(pyrimidin-5-yl)])) | 9.00
16 | CC(C)CC[C@@H]1NC(=O)[C@H](Cc2ccccc2F)NC(=O)[C@H](CC2CC2)NC(=O)[C@H](Cc2cncnc2)NC(=O)[C@H](C)N(C)C(=O)[C@H](Cc2ccccc2)OC(=O)C23CC(CNC(=O)[C@H](Cc4cccnc4F)N(C)C1=O)(C2)C3 [compound 336, cyclo(FLac-NMeA-PyrimAla-cPrA-Phe2F-hL-NMe3Pal2F-amBCP)] (cyclo([Ala(cPr)][Phe(2-F)][hLeu][X39][X1][PhLac][NMeA][Ala(pyrimidin-5-yl)])) | 8.30
17 | CC(C)CC[C@@H]1NC(=O)[C@H](Cc2ccccc2F)NC(=O)[C@H](CC2CC2)NC(=O)[C@H](Cc2cncnc2)NC(=O)[C@H](C)N(C)C(=O)[C@H](Cc2ccccc2)OC(=O)C23CC(CNC(=O)[C@H](Cc4ccncc4F)N(C)C1=O)(C2)C3 [compound 337, cyclo(FLac-NMeA-PyrimAla-cPrA-Phe2F-hL-NMe4Pal2F-amBCP)] (cyclo([Ala(cPr)][Phe(2-F)][hLeu][X45][X1][PhLac][NMeA][Ala(pyrimidin-5-yl)])) | 8.52
18 | CC(C)CC[C@@H]1NC(=O)[C@H](Cc2ccccc2F)NC(=O)[C@H](CC2CC2)NC(=O)[C@H](Cc2cncnc2)NC(=O)[C@H](C)N(C)C(=O)[C@H](Cc2ccccc2)OC(=O)C23CC(CNC(=O)[C@H](Cc4cnccc4F)N(C)C1=O)(C2)C3 [compound 338, cyclo(FLac-NMeA-PyrimAla-cPrA-Phe2F-hL-NMe3Pal6F-amBCP)] (cyclo([Ala(cPr)][Phe(2-F)][hLeu][X43][X1][PhLac][NMeA][Ala(pyrimidin-5-yl)])) | 8.70
19 | CC(C)CC[C@@H]1NC(=O)[C@H](Cc2ccccc2F)NC(=O)[C@H](CC2CC2)NC(=O)[C@H](Cc2cncnc2)NC(=O)[C@H](C)N(C)C(=O)[C@H](Cc2ccccc2)OC(=O)C23CC(CNC(=O)[C@H](Cc4ccc(F)nc4)N(C)C1=O)(C2)C3 [compound 339, cyclo(FLac-NMeA-PyrimAla-cPrA-Phe2F-hL-NMe3Pal4F-amBCP)] (cyclo([Ala(cPr)][Phe(2-F)][hLeu][X8][X1][PhLac][NMeA][Ala(pyrimidin-5-yl)])) | 9.00
20 | C[C@H](c1ccccc1)[C@H]1C(=O)NCC23CC(C2)(C3)C(=O)O[C@@H](Cc2ccccc2)C(=O)N(C)[C@@H](C)C(=O)N[C@@H](Cc2cncnc2)C(=O)N[C@@H](CC2CC2)C(=O)N[C@@H](Cc2ccccc2F)C(=O)N[C@@H](CCC(C)(C)F)C(=O)N1C [compound 341, cyclo(FLac-NMeA-PyrimAla-cPrA-Phe2F-hL3F-NMeRbMeF-amBCP)] (cyclo([Ala(cPr)][Phe(2-F)][X11][X19][X1][PhLac][NMeA][Ala(pyrimidin-5-yl)])) | 5.86
